Experiments:
[1] = system: tyrosine hydroxylase (TH); experiment: Tyrosine hydroxylase staining in striatum of TgA53T mice; assay type: in vivo, mouse; details: 40 mg/Kg I.P. daily for 7 days, vs DMSO
Experimental: (§1) Immunohistology. Animals were deeply anesthetized with a mixture of xylazine and ketamine (1:8), washed with normal saline for 1 min and then perfused with 4% paraformaldehyde (PFA) for 15-20 min. Brains were quickly dissected out and immediately stored in 4% PFA for 24 h at 4° C. and then transferred to 30% sucrose at 4° C. for 48 h. Brains were cut using a cryostat microtome into 20 μm thick coronal sections and stored at −20° C.
Immunohistochemistry was performed on the 20 μm thick brain sections for evaluation of ubiquitination of alpha-synuclein. The antibodies used were human alpha-synuclein monoclonal antibody (Thermo Fisher, AHB0261, Rockford, IL, USA) and ubiquitin polyclonal antibody (Thermo Fisher, PA3-16717, Rockford, IL, USA). The optic densitometry of co-localization of ubiquitin with alpha-synuclein was measured using Image J. Tyrosine hydroxylase (TH) is the limiting enzyme in DA synthesis, so probing for TH+ neurons will help to evaluate the status of DA producing neurons in the SN and their terminals in the striatum. We performed fluorescent staining of TH+ in striatum and conducted optic densitometry measurement of striatal DA terminals. Nuclear staining with 4,6-diamidino-2-phenylindole was performed according to manufacturer's protocols (Life Technologies, Rockford, IL, USA).

[2] = system: human alpha-synuclein; experiment: Alpha-synuclein levels via ELISA in alpha-synuclein-transfected SHSY5Y cells; assay type: cell-based; details: 5 hours, concentration between 1 and 0.1 nM
Experimental: Cell lines, transfection, and treatment.
Alpha-Synuclein Enzyme-Linked Immunosorbent Assay (ELISA). ELISAs for total human alpha-synuclein (Millipore; Burlington, MA) were conducted using Milliplexed ELISA. Briefly, Xmap technology uses magnetic microspheres that are internally coded with two fluorescent dyes. Through precise combinations of these two dyes, multiple proteins are simultaneously measured within a sample. Each of these spheres is coated with a specific capture antibody. The capture antibody binds to the detection antibody and a reporter molecule, completing the reaction on the surface of the bead.
(§2) A total of 25 μL soluble protein was incubated overnight at 4° C. with 25 μL of a mixed bead solution. After washing, samples were incubated with 25 μL detection antibody solution for 1.5 hours at room temperature. Streptavidin-phycoerythrin (25 μL) was added to each well containing the 25 μL of detection antibody solution. Samples were then washed and suspended in 100 μL of sheath fluid. Samples were then run on MAGPIX with Xponent software. The median fluorescent intensity (MFI) data were analyzed using a 5-parameter logistic or spline curve-fitting method for calculating analyte concentrations in samples. Specific alpha-synuclein ELISAs were performed on tissue soluble extracts from midbrain lysates in 1XSTEN buffer. The ELISA for USP13 (MyBioSource, Cat # MBS9335287), Human alpha-synuclein (Biolegend, Cat #844101) and specific p-Tau ser396 (Invitrogen, KHB7031) were performed on cell or brain tissue extracts as described above according to manufacturers' protocol.

[3] = system: Nissl+ cells; experiment: Nissl staining neuron counts in TgA53T mice; assay type: in vivo, mouse; details: 40 mg/Kg I.P. daily for 7 days, vs DMSO
Experimental: as §1
Nissl and Silver Staining. Nissl staining was performed using FD Cresyl Violet Solution™ Regular Strength (FD NeuroTechnologies, Cat PS102-01) as per manufacturer's instructions. Silver staining was performed using FD NeuroSilver™ (FD NeuroTechnologies, Cat PK301,) as per manufacturer's instructions.

[4] = system: human alpha-synuclein; experiment: Alpha-synuclein levels in TgA53T mice (WB, ELISA, DAB staining); assay type: in vivo, mouse; details: 10 mg/kg or 40 mg/kg I.P. daily for 7 days, vs DMSO
[5] = Pharmacokinetics in brain and serum of C57BL/6 mice (UHPLC-MS/MS); assay type: in vivo, mouse; details: 10 mg/kg I.P. single dose
Experimental: Pharmacokinetics Studies. […] Brain and serum samples were collected at 1, 2, 3, 4, 8 and 12 h (n=3 per time point). Animals injected with vehicle (DMSO) were used for background subtraction. Stock solution of the drug (1 mg/mL) and internal standards were prepared in methanol. Intermediate solutions used for the calibrators and control samples were serial-diluted in methanol/water (1:1). Preparation of the calibration curve standards and quality samples (QC) were performed by mixing the intermediate dilutions in blank samples (brain homogenates, serum). […] Serum and brain samples were stored at −80° C. and then thawed to room temperature prior to preparation. The brains were homogenized in MilliQ water (1 mg brain: 10 μL water). Proteins were precipitated in both brain and serum samples by mixing 25 μL aqueous sample with 75 μL internal standard working solution. The mixture was centrifuged at 12,300 g for 5 min. Thereafter, 75 μL of each supernatant and 25 μL of MilliQ water were pipetted into a 96-well PCR plate (Fisher Scientific, Dawsonville, GA,USA).
Briefly, the UHPLC-MS/MS system included an Elute HTG binary gradient UHPLC pump, an Elute column oven and an EVOQ Elite triple quadrupole mass spectrometer (all from Bruker Daltonik GmbH, Bremen, Germany) equipped with an electrospray ionization (ESI) source operating in a positive mode. The samples were injected by use of a PAL auto sampler (CTC Analytics, Zwingen, Switzerland) equipped with a 10-μL sample loop; the samples were kept in a PAL stack cooler for 6 microtiter plates and operating at +6° C. The system was controlled by a Compass 2.0/HyStar 4.0 software (Bruker); the compound screening and quantitation was performed by a TASQ 2.2 data acquisition and processing software (Bruker). The mass spectrometer was supplied by nitrogen and air generated by a Genius 3045 nitrogen/air generator (Peak Scientific Instruments, Inchinnan, Scotland, UK). The ESI parameters were as follows: probe gas flow 50, nebulizer gas flow 60, probe temperature +400° C., cone gas flow 20, cone temperature +350° C., CID gas Ar 1.5 mTorr. The mass spectra were scanned in the MRM mode to find the optimal collision energies for the test compounds and their respective precursor ions.
For chromatographic separation, an YMC-Ultra HT Hydrosphere C18 column (2.0×100 mm, 2 μm particle size) and an YMC-Hydrosphere 2.1×5 mm guard column (YMC Co. Ltd., Kyoto, Japan) were used. The mobile phase A was 10 mM ammonium formate, pH 4.3, in water; the mobile phase B was 10 mM ammonium formate, pH 4.3, in 10% water, 50% acetonitrile and 40% isopropyl alcohol. The mobile phase gradient was as follows (min—A/B%): 0 min—50/50, 0.5 min—50/50, 2.0 min—20/80, 3 min—20/80, 3.1 min—50/50, 4.5 min—50/50. The flow rate was 450 μL/min, and the column temperature was set at 50° C. The sample injection volume was 10 μL.

[6] = system: murine tau; experiment: p-Tau ser396 ELISA in TgA53T mice; assay type: in vivo, mouse; details: 10 mg/Kg or 40 mg/Kg I.P. daily for 7 days
Experimental: as §2

For Fc1ccc2nccc(OCc3ccccc3)c2c1 [4-(Benzyloxy)-6-fluoroquinoline], the “staining of tyrosine hydroxylase (TH)” value [1] was “did not show any noticeable effects”, the “level of alpha-synuclein via ELISA” value [2] was “significantly reduce the level of alpha-synuclein” and the “neuron counts (Nissl+ cells)” value ([3]; cortex) was “significantly increased neuron counts”. For the same molecule, the “neuron counts (Nissl+ cells)” value ([3]; striatum) was “significantly increased neuron counts”, the “neuron counts (Nissl+ cells)” value ([3]; substantia nigra (SN)) was “significantly increased neuron counts” and the “human alpha-synuclein in midbrain lysates by WB” value [4] was “significantly reduced”. For the same molecule, the Brain/serum ratio ([5]; 10 mg/kg) was 28.0%, the AUC ([5]; brain) was 0.1643 µM·h and the “T1/2 (elimination)” value ([5]; brain) was 2.32 h. For the same molecule, the AUC ([5]; serum) was 0.5994 µM·h, the “T1/2 (elimination)” value ([5]; serum) was 1.84 h and the Tmax ([5]; serum) was 1 h. The “murine tau levels (ptau396 ELISA)” value [6] was “no effect”.

Source: patent publication US20240092800A1, “USP13 INHIBITORS AND METHODS OF USE THEREOF” (GEORGETOWN UNIVERSITY, priority 2021, published 2024)
